Results from patent US20090042879A1, “PHTHALAZINONE DERIVATIVES AND PHARMACEUTICAL COMPOSITIONS COMPRISING THE SAME” (NIPPON SHINYAKU CO., LTD., priority 2005, published 2009).

Tests used:
TNCB-induced dermatitis = test: Dermatitis inhibitory effect in trinitrochlorobenzene (TNCB)-induced dermatitis model; assay type: in vivo, BALB/C mouse; settings: 20 mg of 1.0% test compound/vaseline ointment on right pinna, five times in 1 week; pinna thickness 6 hours after last application
Experimental: The dermatitis inhibitory effect of a test compound was investigated, using a trinitrochlorobenzene (TNCB)-induced dermatitis model (J. Invest. Dermatol., 105, 749-755, 1995, J. Immuno., 159, 2484-2491, 1997).
20 μL of 1% (w/v) TNCB/acetone solution was applied dropwise to both sides of the right pinna of a BALB/C mouse (♂, 8-week old), whereby the mouse was sensitized. From day 7 after the sensitization with TNCB, 1% TNCB/acetone solution was applied to both sides of the right pinna of the mouse every other day at 3 times/week, for 3 weeks in total. TNCB was applied for 2 weeks so as to fully induce dermatitis in the mouse, and then 20 mg of 1.0% test compound/vaseline ointment was applied to both sides of the right pinna five times in total for 1 week. At 6 hours after the last application, the thickness of the right pinna of the mouse was measured, and the effect of the test compound on dermatitis was thus evaluated. The inhibitory rate was calculated according to the following formula.
Inhibitory Rate (%)={1−[mean thickness of inflamed pinna (right ear) of chemical-treated group−mean thickness of non-inflamed pinna (left ear) of the group]/[mean thickness of inflamed pinna (right ear) of diseased control group−mean thickness of non-inflamed pinna (left ear) of the group]}×100.

human recombinant PDE4D = biological target: T1, human recombinant PDE4D (Homo sapiens, UniProt Q08499); test: PDE4 inhibitory activity (cAMP hydrolysis, HitHunter cAMP II chemiluminescent kit); assay type: biochemical; settings: 5 ng human recombinant PDE4D, 1 pmol cAMP, 30° C. for 30 minutes
T1 construct: purchased ABNOVA H00005144-P01
Experimental: The activity of a test compound to inhibit human PDE4 was evaluated in the manner mentioned below.
In the presence of a test compound (10^−7 to 10^−12 M), 1 pmol of cAMP was hydrolyzed through incubation with 5 ng of human recombinant PDE4D (ABNOVA's #H00005144-P01, Lot. FAK0050713Jb01, Taiwan) at 30° C. for 30 minutes. After the hydrolysis, the cAMP concentration was measured with a chemiluminescent kit, HitHunter cAMP II Assay Kit (by Amersham Bioscience).

[1] = test system: TNF-α production from rat whole blood cells stimulated with LPS; test: TNF-α production-suppressing activity in LPS-stimulated rat whole blood (ELISA); assay type: cell-based; settings: 37° C. for 5 hours
Experimental: The activity of a test compound to suppress TNF-α production from rat whole blood cells stimulated with LPS was evaluated in the manner mentioned below (J. Pharmacol. Exp. Ther., 302, 390-396, 2000).
Under anesthesia with ether, a proper amount of blood was taken out from a 10-week male SD rat (♂, 10-week old) through its abdominal vein into a tube with EDTA (1.6 mg/mL) therein. A test compound was dissolved in dimethyl sulfoxide to prepare its 10^−2 M solution, which was diluted before use. 80 μL of rat blood was dispensed into each well of a 96-well plate, then 10 μL of the test compound solution was added thereto, and incubated at 37° C. in 5% CO2 for 30 minutes. The test compound and the blood were well mixed, then 10 μL of LPS (100 μg/mL) was added thereto, and incubated at 37° C. in 5% CO2 for 5 hours. Further, 100 μL of PBS was added to each well, then the plate was centrifuged at 4000 rpm for 2 minutes to collect the supernatant, and this was frozen and stored at −80° C. until its use for analysis. The amount of TNF-α production was measured through ELISA. IC50 for TNF-α production-suppressing activity was calculated as the test compound concentration for 50% inhibition of TNF-α production.
As a control compound, the above-mentioned known compound (compound of general formula [A] in which R is a carboxyl group, cis-4-[4-(3,4-dimethoxyphenyl)-1-oxo-4a,5,8,8a-tetrahydro-1H-phthalazin-2-yl-methyl]benzoic acid (hereinafter referred to as control compound A)) was used.

[2] = Metabolism by human liver microsome; assay type: in vitro ADME; settings: NADPH producing system, 37° C., 10 minutes after start of incubation
Experimental: The metabolic characteristics of a test compound were investigated, using human liver microsome.
400 μL of EP buffer (0.25 mM EDTA, 0.25 M potassium phosphate buffer, pH 7.4), 50 μL of 20 mg/mL human liver microsome fraction (by KAC), 350 μl of pure water and 100 μL of 1×10^−4 M test compound were put into a 1.5 mL microtube, and preincubated at 37° C. for 5 minutes. 100 μL of an NADPH producing system (containing 20 mg of NADP+, 70 mg of G6P, 40 units of G6PDH, 20 mg of magnesium chloride hexahydrate in 1 mL of pure water) was added to it, and incubated. To 100 μL of the sample taken at 10 minutes after the start of the incubation, added was the same amount of acetonitrile, and the reaction was thereby stopped. […] 20 μL of the supernatant was led into a high-performance liquid chromatography (Shimadzu'sSPD-10A, LC-10AS, CTO-10A, C-R6A), and the peak area of the test compound at 320 nm was measured, using a C18 column (Cadenza, CD-C18, 75×4.6 mm). […] Under the condition, the peak area of the test compound was measured. The metabolic rate was calculated as follows: 100 μL of acetonitrile was added to 90 μL of the above pre-incubated solution, and then 10 μl of the NADPH producing system was added thereto, and the resulting solution was analyzed for the peak area of the test compound. Based on it, the metabolic rate in 10 minutes after the incubation was calculated.

[3] = Rattus norvegicus, Whole blood cell, 5 h

T1 sequence (Q08499 whole entry): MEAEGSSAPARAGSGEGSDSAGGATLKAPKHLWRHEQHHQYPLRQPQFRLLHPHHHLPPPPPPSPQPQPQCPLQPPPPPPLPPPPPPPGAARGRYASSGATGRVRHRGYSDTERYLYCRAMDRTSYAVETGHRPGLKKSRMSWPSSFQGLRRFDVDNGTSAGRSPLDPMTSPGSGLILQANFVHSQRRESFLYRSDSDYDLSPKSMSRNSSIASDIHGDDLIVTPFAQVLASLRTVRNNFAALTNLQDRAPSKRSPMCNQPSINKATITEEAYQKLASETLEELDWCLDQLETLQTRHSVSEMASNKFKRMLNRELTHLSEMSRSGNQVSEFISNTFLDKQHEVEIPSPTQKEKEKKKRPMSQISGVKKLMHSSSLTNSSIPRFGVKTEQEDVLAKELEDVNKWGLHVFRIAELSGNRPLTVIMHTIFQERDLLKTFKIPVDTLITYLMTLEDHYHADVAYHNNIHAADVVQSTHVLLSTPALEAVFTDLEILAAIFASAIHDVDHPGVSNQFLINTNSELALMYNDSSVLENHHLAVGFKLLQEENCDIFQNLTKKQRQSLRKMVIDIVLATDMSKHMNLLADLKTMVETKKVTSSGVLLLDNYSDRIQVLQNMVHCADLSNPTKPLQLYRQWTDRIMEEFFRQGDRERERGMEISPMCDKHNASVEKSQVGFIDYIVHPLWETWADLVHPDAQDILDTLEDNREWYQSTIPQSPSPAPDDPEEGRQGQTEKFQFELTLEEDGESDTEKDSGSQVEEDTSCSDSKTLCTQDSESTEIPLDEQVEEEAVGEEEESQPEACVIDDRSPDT

SMILES	Dermatitis Inhibitory Percentage (%) (TNCB-induced dermatitis)	IC50 (human recombinant PDE4D) [µM]	IC50 ([1]; Whole blood cell) [µM]	IC50 ([1]; monomaleate) [µM]	Metabolic Rate (%) [2] [%]	IC50 [1, 3] [µM]
COc1ccc(C2=NN(Cc3ccc(CN4CCOCC4)cc3)C(=O)[C@H]3CCCC[C@@H]23)cc1OC (relative stereo) [Example 13, cis-4-(3,4-Dimethoxyphenyl)-2-[4-(morpholin-4-ylmethyl)benzyl]-4a,5,6,7,8,8a-hexahydro-2H-phthalazin-1-one]	33.2	0.005	0.059	–	–	–
COc1ccc(C2=NN(Cc3ccc(N4CCOCC4)cc3)C(=O)[C@H]3CC=CC[C@@H]23)cc1OC (relative stereo) [Example 24, cis-4-(3,4-Dimethoxyphenyl)-2-(4-morpholin-4-ylbenzyl)-4a,5,8,8a-tetrahydro-2H-phthalazin-1-one]	–	–	0.012	–	–	–
COc1ccc(C2=NN(Cc3ccc(CN4CCOCC4)cc3)C(=O)C3CC=CCC23)cc1OC (single isomer, unassigned) [Example 2-2, cis-(+)-4-(3,4-Dimethoxyphenyl)-2-[4-(morpholin-4-ylmethyl)benzyl]-4a,5,8,8a-tetrahydro-2H-phthalazin-1-one monomaleate]	–	0.00079	–	0.0011	–	–
COc1ccc(C2=NN(Cc3ccc(C(=O)O)cc3)C(=O)[C@H]3CC=CC[C@@H]23)cc1OC (relative stereo) [control compound A, cis-4-[4-(3,4-dimethoxyphenyl)-1-oxo-4a,5,8,8a-tetrahydro-1H-phthalazin-2-yl-methyl]benzoic acid, reference compound]	2.6	–	133	–	35.2	–
COc1ccc(C2=NN(Cc3ccc(CN4CCC5(CC4)OCCO5)cc3)C(=O)[C@H]3CC=CC[C@@H]23)cc1OC (relative stereo) [Example 5, cis-4-(3,4-Dimethoxyphenyl)-2-[4-(1,4-dioxa-8-azaspiro[4,5]dec-8-ylmethyl)benzyl]-4a,5,8,8a-tetrahydro-2H-phthalazin-1-one]	20.2	0.02	0.199	–	–	–
COc1ccc(C2=NN(Cc3ccc(C[N+]4([O-])CCOCC4)cc3)C(=O)[C@H]3CC=CC[C@@H]23)cc1OC (relative stereo) [Example 21, cis-(+)-4-{4-[4-(3,4-dimethoxyphenyl)-1-oxo-4a,5,8,8a-tetrahydro-1H-phthalazin-2-ylmethyl]benzyl}morpholine 4-oxide]	–	–	0.012	–	–	–
COc1ccc(C2=NN(Cc3ccc(CN4CCC(=O)CC4)cc3)C(=O)[C@H]3CC=CC[C@@H]23)cc1OC (relative stereo) [Example 6, cis-4-(3,4-Dimethoxyphenyl)-2-[4-(4-oxopiperidin-1-ylmethyl)benzyl]-4a,5,8,8a-tetrahydro-2H-phthalazin-1-one]	36.8	0.0013	–	–	–	0.084
COc1ccc(C2=NN(Cc3cccc(CN4CCOCC4)c3)C(=O)[C@H]3CC=CC[C@@H]23)cc1OC (relative stereo) [Example 10, cis-4-(3,4-Dimethoxyphenyl)-2-[3-(morpholin-4-ylmethyl)benzyl]-4a,5,8,8a-tetrahydro-2H-phthalazin-1-one]	31.1	0.02	0.107	–	–	–
COc1ccc(C2=NN(Cc3ccc(CN4CCOCC4)cc3)C(=O)C3CC=CCC23)cc1OC (stereo not drawn) [Example 1, cis-4-(3,4-Dimethoxyphenyl)-2-[4-(morpholin-4-ylmethyl)benzyl]-4a,5,8,8a-tetrahydro-2H-phthalazin-1-one]	31.2	0.063	–	–	–	0.0043
COc1ccc(C2=NN(Cc3cccc(CN4CCNC(=O)C4)c3)C(=O)[C@H]3CC=CC[C@@H]23)cc1OC (relative stereo) [Example 20, cis-(+)-4-(3,4-dimethoxyphenyl)-2-[3-(3-oxopiperazin-1-ylmethyl)benzyl]-4a,5,8,8a-tetrahydro-2H-phthalazin-1-one]	–	–	0.019	–	–	–
COc1ccc(C2=NN(Cc3ccc(CN4CCOCC4)cc3)C(=O)C3CC=CCC23)cc1OC (single isomer, unassigned) [Example 2-1, cis-(+)-4-(3,4-Dimethoxyphenyl)-2-[4-(morpholin-4-ylmethyl)benzyl]-4a,5,8,8a-tetrahydro-2H-phthalazin-1-one]	38.5	–	0.0024	–	61.5	–
COc1ccc(C2=NN(Cc3ccc(Cn4ccnc4)cc3)C(=O)[C@H]3CC=CC[C@@H]23)cc1OC (relative stereo) [Example 9, cis-4-(3,4-Dimethoxyphenyl)-2-[4-(imidazol-1-ylmethyl)benzyl]-4a,5,8,8a-tetrahydro-2H-phthalazin-1-one]	–	0.025	–	–	–	0.001
COc1ccc(C2=NN(Cc3ccc(CN4CCNC(=O)C4)cc3)C(=O)[C@H]3CC=CC[C@@H]23)cc1OC (relative stereo) [Example 16, cis-(+)-4-(3,4-Dimethoxyphenyl)-2-[4-(3-oxopiperazin-1-ylmethyl)benzyl]-4a,5,8,8a-tetrahydro-2H-phthalazin-1-one]	–	–	0.0049	–	–	–
